According to patent US8691824B2, “Certain kynurenine-3-monooxygenase inhibitors, pharmaceutical compositions, and methods of use thereof” (CHDI Foundation, Inc., priority 2008, dated 2014):

The compounds below were run against T1, KMO mouse enzyme (Mus musculus, UniProt Q91WN4) (assay: L-Kynurenine hydroxylation to 3OH-KYN by LC/MS, mouse liver mitochondrial KMO). Details: compound at 10 μM, read-out: INH.Mouse @ 10 μM.
T1 construct: KMO enzyme prepared at Evotec from mouse liver (4-6 weeks old) via mitochondria isolation; from tissue; host or cells: mouse liver (4-6 weeks old), mitochondria isolation
Format: biochemical
Protocol: A method of monitoring L-Kynurenine (KYN) hydroxylation to form 3-Hydroxy-Kynurenine (3OH-KYN) by LC/MS is described. Product is quantified by multiple reaction monitoring (MRM method).
• Compound: Stock concentrations: 10 mM in 100% DMSO • Enzyme: KMO enzyme prepared at Evotec from mouse liver (4-6 weeks old) via mitochondria isolation as described in the literature • Substrate: L-Kynurenine (Sigma: Cat# K3750, stock concentration: 10 mM in 100 mM potassium phosphate buffer, pH 7.4) Assay Conditions: • Buffer: 100 mM potassium phosphate, pH 7.4, 200 μM NADPH, 0.4 U/ml G6P-DH (Glucose 6-phosphate Dehydrogenase), 3 mM G6P (D-Glucose 6-phosphate) • Assay Volume: 40 μl • Plate Format: 384 well plate, transparent (Matrix) • Read-Out: product (3OH-KYN) quantification using product specific MRM • Reader: LC/MS/MS Assay Protocol: • prepare serial dilution (factor 3) of compound in 100% DMSO (top concentration=10 mM, 100% DMSO) • [8 points: 10 mM; 3.33 mM; 1.11 mM; 0.37 mM; 0.12 mM; 0.04 mM; 0.0137 mM; 0.0045 mM, 0.0015 mM] • prepare […] concentrated solution of each compound concentration (top concentration 300 μM, 3% DMSO) in assay buffer • [concentrations: 300 μM; 100 μM; 33.3 μM; 11.1 μM; 3.70 μM; 1.23 μM; 0.41 μM; 0.137 μM] • prepare substrate (10 mM) at concentration of 1 mM in assay buffer • assay mix: 4 μl compound/well of each concentration+24 μl assaybuffer/well+8 μl KMO mouse enzyme+4 μl 1 mM substrate (final concentration=100 μM) • [final compound top concentration: 30 μM; 0.3% DMSO] • [final compound bottom concentration: 0.0137 μM; 0.3% DMSO] • positive control: 4 μl 50 μM FCE28833 in assay buffer, 0.5% DMSO [final assay concentration=5 μM]+24 μl assaybuffer/well+8 μl KMO mouse enzyme+4 μl 1 mM substrate [final concentration=100 μM] • negative control: 28 μl assay buffer/well+8 μl KMO mouse enzyme+4 μl 1 mM substrate [final concentration=100 μM] • incubate 40 min at RT • add 40 μl/well 10% trichloro acetic acid in water to stop the assay and precipitate protein • centrifuge plate for 3 min at 4000 rpm • product detection by LC/MS (injection of 20 μl/well, 2 fold overfill of the 10 μl sample loop) Data Analysis:
IC50's are calculated using automated fitting algorithm (A+Analysis).
Using procedures similar to those described herein, the following compounds were assayed for activity.

T1 sequence (Q91WN4 whole entry): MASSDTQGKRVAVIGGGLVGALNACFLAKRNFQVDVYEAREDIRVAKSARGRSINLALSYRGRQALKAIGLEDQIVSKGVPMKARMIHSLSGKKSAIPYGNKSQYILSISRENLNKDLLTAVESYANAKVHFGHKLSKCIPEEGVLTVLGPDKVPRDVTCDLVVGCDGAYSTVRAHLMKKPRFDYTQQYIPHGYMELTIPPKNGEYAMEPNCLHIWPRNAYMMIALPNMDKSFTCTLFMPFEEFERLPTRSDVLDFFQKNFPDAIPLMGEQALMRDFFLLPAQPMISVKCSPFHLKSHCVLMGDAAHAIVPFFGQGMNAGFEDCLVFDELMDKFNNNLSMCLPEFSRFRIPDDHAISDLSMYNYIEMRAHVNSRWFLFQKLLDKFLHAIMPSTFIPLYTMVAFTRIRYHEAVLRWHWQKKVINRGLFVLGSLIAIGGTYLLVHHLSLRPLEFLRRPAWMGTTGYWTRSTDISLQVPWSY

Compound | inhibition at 10 µM
Cc1ncc(NC(=O)CC2CON=C2c2ccc(Cl)c(Cl)c2)cn1 (stereo not drawn) [2-[3-(3,4-Dichloro-phenyl)-4,5-dihydro-isoxazol-4-yl]-N-(2-methyl-pyrimidin-5-yl)-acetamide] | 81.2%
Cc1cc(NC(=O)CC2CON=C2c2ccc(Cl)c(Cl)c2)on1 (stereo not drawn) [2-[3-(3,4-Dichloro-phenyl)-4,5-dihydro-isoxazol-4-yl]-N-(3-methyl-isoxazol-5-yl)-acetamide] | 64%
O=C(CC1CON=C1c1ccc(Cl)c(Cl)c1)Nc1cccnc1 (stereo not drawn) [2-[3-(3,4-Dichloro-phenyl)-4,5-dihydro-isoxazol-4-yl]-N-pyridin-3-yl-acetamide] | 77.2%
O=C(CC1CON=C1c1ccc(Cl)c(Cl)c1)Nc1cncnc1 (stereo not drawn) [2-[3-(3,4-Dichloro-phenyl)-4,5-dihydro-isoxazol-4-yl]-N-pyrimidin-5-yl-acetamide] | 82.7%
NC(=O)CC1CON=C1c1ccc(Cl)c(Cl)c1 (stereo not drawn) [2-[3-(3,4-Dichloro-phenyl)-4,5-dihydro-isoxazol-4-yl]-acetamide] | 60.4%
O=C(O)CC1CON=C1c1cccc(Cl)c1 (stereo not drawn) [3-(3-Chloro-phenyl)-4,5-dihydro-isoxazol-4-yl]-acetic acid] | 106%
COC(=O)CC1CON=C1c1ccc(Cl)c(Cl)c1 (stereo not drawn) [[3-(3,4-Dichloro-phenyl)-4,5-dihydro-isoxazol-4-yl]-acetic acid methyl ester] | 102%
O=C(O)CC1CON=C1c1ccc(Cl)c(Cl)c1 (stereo not drawn) [[3-(3,4-Dichloro-phenyl)-4,5-dihydro-isoxazol-4-yl]-acetic acid] | 101%
COC(=O)CC1CC(c2ccc(Cl)c(Cl)c2)=NO1 (stereo not drawn) [[3-(3,4-Dichloro-phenyl)-4,5-dihydro-isoxazol-5-yl]-acetic acid methyl ester] | 88.4%
O=C(O)CC1CC(c2ccc(Cl)c(Cl)c2)=NO1 (stereo not drawn) [[3-(3,4-Dichloro-phenyl)-4,5-dihydro-isoxazol-5-yl]-acetic acid] | 93.3%
CC1ON=C(c2ccc(Cl)c(Cl)c2)C1CC(=O)O (stereo not drawn) [[3-(3,4-Dichloro-phenyl)-5-methyl-4,5-dihydro-isoxazol-4-yl]-acetic acid] | 84.5%
O=C(O)Cc1conc1-c1ccc(Cl)c(Cl)c1 [[3-(3,4-Dichloro-phenyl)-isoxazol-4-yl]-acetic acid] | 74.7%
CCOC(=O)Cc1cc(-c2ccc(Cl)c(Cl)c2)no1 [[3-(3,4-Dichloro-phenyl)-isoxazol-5-yl]-acetic acid ethyl ester] | 60.8%
COC(=O)Cc1cc(-c2ccc(Cl)c(Cl)c2)no1 [[3-(3,4-Dichloro-phenyl)-isoxazol-5-yl]-acetic acid methyl ester] | 66.4%
O=C(O)Cc1cc(-c2ccc(Cl)c(Cl)c2)no1 [[3-(3,4-Dichloro-phenyl)-isoxazol-5-yl]-acetic acid] | 74.5%
